According to patent publication US20120076846A1, “Pyrethroid Compound, Preparation Process and Use Thereof” (priority 2009, published 2012):

Assays:
[1] = tested on: female Culex pipiens pallens; assay: Efficacy of pesticide incense coils on mosquito (GB13917.4-92, airtight cask); assay type: in vivo; settings: for KT50: pesticide incense coil, 0.04 w/w % active ingredient, ignited and removed after 1 min, 20 female mosquitoes; for relative efficacy compared with dimefluthrin: incense coil 0.04 w/w %, from KT50 of table 1
Procedure: To a mixture of corn starch, carbon powder and wood flour (1:5:4, 99.96 parts by weight) was added water (120 parts by weight) and the resulting mixture was kneaded, and then dried to give a pesticide incense coil substrate (diameter: 12.0 cm; thickness: 4 mm; one pair of substrates' weight: 40 g).
On the other hand, a 0.4 w/v % solution of compound 1 in kerosene was prepared.
The above solution (4 ml) was uniformly sprayed on the incense coil substrate with a micro-syringe, and then kept for airing at room temperature for 3 hours to get of a pesticide incense coil I containing compound 1 according to the present invention (0.04 w/w %).
Similarly, a 0.4 w/v % solution of compound 2 in kerosene was prepared and a pesticide incense coil II containing compound 2 (0.04 w/w %) was be obtained.
A 0.4 w/v % solution of compound 3 in kerosene was prepared and a pesticide incense coil III containing compound 3 (0.04 w/w %) was obtained;
A 0.4 w/v % solution of compound 4 in kerosene was prepared and a pesticide incense coil IV containing compound 4 (0.04 w/w %) was obtained;
A 0.4 w/v % solution of compound 6 in kerosene was prepared and a pesticide incense coil V containing compound 6 (0.04 w/w %) was obtained;
A 0.4 w/v % solution of dimefluthrin in kerosene was prepared and a pesticide incense coil VI containing dimefluthrin (0.04 w/w %) was obtained.
The efficacy of pesticide coils I-Vi on mosquito were tested and compared according to GB13917.4-92). In particular, the test pests are female Culex pipiens pallens (2-3 days old, fasten). Firstly, 20 test mosquitoes were captured and put into airtight cask testing device with a mosquito-sucking tube, a section of pesticide incense coil to be tested was put on shelves, then ignited and removed after 1 min.

Blattella germanica = assay: Efficacy of aerosol pesticide on blattella germanica (GB13917.2-92); assay type: in vivo; settings: 1 g sprayed
Procedure: (§1) Compound 1 (0.3 parts by weight) and kerosene (59.7 parts by weight) are mixed under heating to prepare a pesticide. The pesticide was placed in aerosol cans with a valve and then a mixture of propane and butane (40.0 parts by weight) was injected into tank through the valve at positive pressure to get an aerosol pesticide, which contains […] compound 1.
(§2) The efficacy of the aerosol pesticide on Mosquitoes, flies and blattella germanicas were tested according to GB13917.2-92. In particular, the test pests were placed into a tank. After all test pests restored normal activities, 1 g aerosol pesticide from aerosol cans was sprayed into the tank. Take the barrier plate away to make pests exposed to the aerosol pesticide and the number of killed pests was recorded at regular intervals, then all test pests were transferred to a clean cage after 20 mins, the number of dead pests was counted after 24 hours and the mortality of blattella germanicas at 72 h was determined.

Fly = assay: Efficacy of aerosol pesticide on fly (GB13917.2-92); assay type: in vivo; settings: 1 g sprayed
Procedure: as §1, §2

Mosquito [2] = assay: Efficacy of aerosol pesticide on mosquito (GB13917.2-92); assay type: in vivo; settings: 1 g sprayed
Procedure: as §1, §2

sanitary pests = assay: Efficacy comparison of stereoisomers in controlling sanitary pests (experiments not detailed); settings: for efficacy of isomer relative to other isomers: qualitative statement from applicant's study
Mosquito [3] = assay: Volatile agent on filter paper hung on the door of a room, mosquito invasion; assay type: in vivo; settings: 1 mg on filter paper 20 cm×50 cm, volatilised at room temperature, hung on edge of door
Procedure: Compound 6 (2,3,5,6-tetrafluoro-4-methoxymethylbenzyl-1R, trans-(Z)-3-(3,3,3-trifluoro-1-prop ylene)-2,2-dimethylcyclopropane carboxylate, 1 mg) was dissolved in acetone (20 ml) to obtain a solution. The resulting solution was distributed on a filter paper (20 cm×50 cm) and air-dried to remove the acetone to obtain a volatile agent.

[4] = aerosol pesticide from compound 1 (0.3 parts by weight)
[5] = aerosol pesticide, 20 min exposure, 24 h

COCc1c(F)c(F)c(COC(=O)[C@@H]2C(/C=C/C(F)(F)F)C2(C)C)c(F)c1F (stereo partly drawn) [Compound 2, 2,3,5,6-tetrafluoro-4-methoxymethylbenzyl-1R-(E)-3-(3,3,3-trifluoro-1-propenyl)-2,2-dimethylcyclopropane carboxylate]
KT50 [1]: 5.2 min

COCc1c(F)c(F)c(COC(=O)[C@@H]2C(/C=C\C(F)(F)F)C2(C)C)c(F)c1F (stereo partly drawn) [Compound 1, 2,3,5,6-tetrafluoro-4-methoxymethylbenzyl-1R-(Z)-3-(3,3,3-trifluoro-1-propenyl)-2,2-dimethylcyclopropane carboxylate]
relative efficacy compared with dimefluthrin [1]: more than twice that of dimefluthrin | KT50 [1]: 3.2 min | KT50 (mosquito/fly/cockroach) (Blattella germanica; [4]): 6.2 min | Mortality (72 h) (Blattella germanica; aerosol pesticide, 20 min exposure, 72 h): 90% | KT50 (mosquito/fly/cockroach) (Fly; [4]): 4.3 min | Mortality during 24 h (Fly; [5]): 100% | KT50 (mosquito/fly/cockroach) (Mosquito [2]; [4]): 4.8 min | Mortality during 24 h (Mosquito [2]; [5]): 100% | cross resistance compared to traditional pyrethroid products such as allethrin (sanitary pests; control of sanitary pests): doesn't have cross resistance | efficacy of isomer relative to other isomers (sanitary pests): highly active isomer

COCc1c(F)c(F)c(COC(=O)[C@H]2C(/C=C\C(F)(F)F)C2(C)C)c(F)c1F (stereo partly drawn) [Compound 3, 2,3,5,6-tetrafluoro-4-methoxymethylbenzyl-1S-(Z)-3-(3,3,3-trifluoro-1-propenyl)-2,2-dimethyl cyclopropane carboxylate]
KT50 [1]: 5.1 min

COCc1c(F)c(F)c(COC(=O)[C@@H]2[C@@H](/C=C\C(F)(F)F)C2(C)C)c(F)c1F (relative stereo) [Compound 6, 2,3,5,6-tetrafluoro-4-methoxymethylbenzyl-1R, trans-(Z)-3-(3,3,3-trifluoro-1-propenyl)-2,2-dimethyl cyclopropane carboxylate]
relative efficacy compared with dimefluthrin [1]: more than twice that of dimefluthrin | KT50 [1]: 3.1 min | mosquito invasion of a room (Mosquito [3]): None mosquito invaded | efficacy of isomer relative to other isomers (sanitary pests): slightly better than the cis isomer

COCc1c(F)c(F)c(COC(=O)C2C(C=C(C)C)C2(C)C)c(F)c1F (stereo not drawn) [Dimefluthrin, dimefluthrin, reference compound]
KT50 [1]: 7.6 min

COCc1c(F)c(F)c(COC(=O)[C@H]2C(/C=C/C(F)(F)F)C2(C)C)c(F)c1F (stereo partly drawn) [Compound 4, 2,3,5,6-tetrafluoro-4-methoxymethylbenzyl-1S-(E)-3-(3,3,3-trifluoro-1-propenyl)-2,2-dimethylcyclopropane carboxylate]
KT50 [1]: 8.2 min
